Here are results for 55 molecules from the supplement of paper PMC6723410.

One assay relates to GUMC-403. In words: viability at highest tested concentration (max response) relative to DMSO (% of DMSO control); higher = less cytotoxic. To be noted: library / dose series: MIPE library, 11-point 1:3 dilution; top concentration 46.1 µM; 48 h. In outline:
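GUMC-403 papilloma cells, derived from a patient and expanded by conditional reprogramming, were dispensed at 700/well into 1536-well plates in 5 μL F + Y medium. A pin tool delivered 23 nL of each compound across an 11-point 1:3 dilution series for 48 h. CellTiter-Glo luminescence, read on a ViewLux, was normalised so that vehicle wells equalled 100% and empty wells 0%. Values report viability at the highest tested concentration relative to vehicle control.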
Turning to `COc1ccc2[nH]cc(CCNC(C)=O)c2c1`, the viability is 106.

Consider `CN1CCCN(C(=O)c2cccc(-c3ccc(/C=C4/C(=O)Nc5ccc(Cl)cc54)o3)c2)CC1`, for which the viability was 97.7.

For the molecule `CCOc1cc2c(c(F)c1OCC)C(=N)N(CC(=O)c1cc(N3CCOCC3)c(OC)c(C(C)(C)C)c1)C2`, the viability worked out at 124.

In turn, `CCCCCCCCCCCCc1ccc([S+](=O)([O-])Nc2nncs2)cc1` returned a viability of 118.

In turn, `Cc1ccc(C(=O)Nc2cccc(C(F)(F)F)c2)cc1-c1ccc2nc(NCCN3CCOCC3)ncc2c1` gave a viability of 55.5.

As for `CC[C@H](C)C(=O)O[C@H]1C[C@@H](C)\C=C2\C=C/[C@H](C)[C@H](CC[C@@H]3C[C@@H](O)CC(=O)O3)[C@@H]12`, the viability stood at 61.5.

`CCCCc1ccc(N[S+](=O)([O-])c2ccc(C)c(C(=O)N3CCN(c4cccc(C)c4C)CC3)c2)cc1` showed a viability of 111.

Consider `Oc1ccc(C2CNCCc3c2cc(O)c(O)c3Cl)cc1` (stereo not given), for which the viability stood at 120.

With `O=c1[nH]c2ccccc2n1CCCN1CCC(n2c(=O)[nH]c3cc(Cl)ccc32)CC1`, the viability turned out to be 130.

`CC(C(=O)O)c1ccc(-c2ccccc2)c(F)c1` (stereo not given) had a viability of 110.

The molecule `Cc1ncc([N+](=O)[O-])n1CC(C)O` (stereo not given) registered a viability of 110.

`Clc1cccc(-n2nnnc2NCc2ccccc2Oc2ccccn2)c1Cl` showed a viability of 116.

Turning to `COc1ccc(C2Sc3ccccc3N(CCN(C)C)C(=O)C2OC(C)=O)cc1` (stereo not given), the viability was 110.

Molecule `O=C(CCN1CCN(C(=O)OCc2cc(Cl)cc(Cl)c2)CC1)c1ccc2[nH]c(=O)oc2c1` had a viability of 109.

With `O=C(Nc1ccncc1)C(=O)c1cn(Cc2ccc(Cl)cc2)c2ccccc12`, the viability is 112.

For `COCCOc1ccc2c(c1)ncn2-c1ccc2cccc(N3CCC(N)CC3)c2n1`, the viability is 87.

The molecule `CC(=O)OCC(CCn1cnc2cnc(N)nc21)COC(C)=O` came in with a viability of 116.

With `C=CC[C@@H]1/C=C(\C)C[C@H](C)C[C@H](OC)[C@H]2O[C@@](O)(C(=O)C(=O)N3CCCC[C@H]3C(=O)O[C@H](/C(C)=C/[C@@H]3CC[C@@H](O)[C@H](OC)C3)[C@H](C)[C@@H](O)CC1=O)[C@H](C)C[C@@H]2OC`, the viability stood at 126.

In turn, `COc1ccc([S+](=O)([O-])Nc2cccnc2Nc2ccc(O)cc2)cc1` came in with a viability of 99.9.

Consider `Cc1ccc([S+](=O)([O-])OCC(=O)Nc2ccc(C(=O)O)c(O)c2)cc1`, for which the viability came to 91.4.

`CNc1nc(-c2ccc3c(N)n[nH]c3c2)cc(N2C[C@@H](C(=O)NC3CCCCC3)CC[C@H]2C)n1`: the viability worked out at 87.8.

In turn, `CN1CC(=O)\N=C1\NC(=O)NC2=CC(=CC=C2)Cl` came in with a viability of 91.6.

In turn, `CC(C)OC(=O)[C@H](C)N[P@](=O)(OC[C@H]1O[C@@H](N2\C=C/C(=O)NC2=O)[C@](C)(F)[C@@H]1O)OC3=CC=CC=C3` yielded a viability of 107.

`CCOC(=O)c1ccc(C#Cc2ccc3c(c2)C(C)(C)CCS3)nc1` had a viability of 118.

As for `NC(=O)c1ncn([C@@H]2O[C@H](CO)[C@@H](O)[C@H]2O)c1N`, the viability stood at 118.

In turn, `Cn1c(=O)c2c(ncn2C)n(C)c1=O.O=C(O)CC(O)(CC(=O)O)C(=O)O` showed a viability of 98.9.

Molecule `CN(C)c1ccc(Nc2nc(N)n(C(=O)c3c(F)cccc3F)n2)cc1` showed a viability of 103.

`OC1CCC(CC1)N2\C=N/C3=C(C2=N)C(=C([N]3CC4=CC=CC=C4)C5=CC=CC=C5)C6=CC=CC=C6` (stereo not given) returned a viability of 126.

Regarding `CC1=C(/C=C/C(C)=C/C=C/C(C)=C\C(=O)O)C(C)(C)CCC1`, the viability came out at 90.

`Cc1ccc(-c2cc(C(F)(F)F)nn2-c2ccc([S+](N)(=O)[O-])cc2)cc1`: the viability was determined as 114.

`C=C[C@H]1CN2CCC1C[C@@H]2C(O)c1ccnc2ccc(OC)cc12` (stereo not given in full) had a viability of 101.

Molecule `COc1ccc([S+](=O)([O-])Nc2cc(-c3c(O)ccc4ccccc34)c(O)c3ccccc23)cc1` had a viability of 117.

The molecule `NC/1=N/C2=C([NH]C=N2)C(=S)N1` gave a viability of 97.1.

With `COC1=CC=C(C=C1)C/2=C/OC3=C(C(=CC(=C3)O)O)C2=O`, the viability was found to be 120.

For `Cc1ccccc1C(OCCN(C)C)c1ccccc1` (stereo not given), the viability came to 127.

`CC(=O)N(C)c1cccc(-c2ccnc3c(C(=O)c4cccs4)cnn23)c1` displayed a viability of 106.

Consider `CO[C@@H]1[C@@H](OC(N)=O)[C@@H](O)[C@H](OC2=CC=C3\C(=C(NC(=O)C4=CC=C([O-])C(=C4)CC=C(C)C)/C(=O)OC3=C2C)O)OC1(C)C`, for which the viability was 108.

Molecule `O=C(Nc1nnc(-c2ccco2)o1)c1cc(-c2ccccc2)nc2ccccc12` gave a viability of 89.1.

Molecule `FC1=CC=C(SC/2=N/N3\C=N/C(=O)/C(=C3/C=C2)C4=C(Cl)C=CC=C4Cl)C(=C1)F` yielded a viability of 108.

As to `CC[C@H](CC[C@@H](C)[C@H]1CC[C@H]2[C@@H]3C\C=C/4C[C@@H](O)CC[C@]4(C)[C@H]3CC[C@]12C)C(C)C`, the viability worked out at 101.

`O=[S+]([O-])(NCCNC/C=C/c1ccc(Br)cc1)c1cccc2cnccc12` yielded a viability of 72.3.

Molecule `Cc1[nH]c(/C=C2\C(=O)Nc3ccc([S+](=O)([O-])Cc4c(Cl)cccc4Cl)cc32)c(C)c1C(=O)N1CCC[C@@H]1CN1CCCC1` displayed a viability of 113.

Regarding `Cc1cccc(Nc2nc(N[C@@H]3CCCC[C@@H]3N)ncc2C(N)=O)c1`, the viability was 66.7.

The molecule `COC1(C[S+]([O-])c2ccccc2)CCN(CCc2c[nH]c3ccc(F)cc23)CC1` (stereo not given) yielded a viability of 101.

In turn, `C[C@@H]1[C@H]\2[C@H](O)[C@H]3[C@H](N(C)C)\C(=C(C(N)=O)/C(=O)[C@@]3(O)\C(=C2C(=O)C4=C(O)C=CC=C14)O)O` came in with a viability of 98.3.

`CN1CCN2c3ncccc3Cc3ccccc3C2C1` (stereo not given): the viability was 101.

In turn, `C=C(C)[C@@H]1CC[C@]2(C(=O)O)CC[C@]3(C)[C@H](CC[C@@H]4[C@@]5(C)CC[C@H](O)C(C)(C)[C@@H]5CC[C@]43C)[C@@H]12` came in with a viability of 94.5.

Consider `Cc1ccc2c(=O)c3cccc(CC(=O)O)c3oc2c1C`, for which the viability came to 6.71.

Turning to `NC\1=N\C(=O)N(\C=C1)[C@@H]2O[C@H](CO)[C@@H](O)[C@H]2O`, the viability is 128.

`Cc1onc(-c2ccccc2)c1C(=O)N[C@@H]1C(=O)N2[C@@H]1SC(C)(C)[C@@H]2C(=O)[O-].[Na+]` displayed a viability of 109.

Consider `CC(N[C@H]1C[C@@H]1c1ccccc1)c1ccc2c(c1)OCCO2` (stereo not given in full), for which the viability is 129.

Consider `O=C(Nc1cccc(Br)c1)c1cccc([S+](=O)([O-])N2CCCCCC2)c1`, for which the viability came out at 111.

In turn, `Cn1cnc([N+](=O)[O-])c1Sc1ncnc2nc[nH]c12` had a viability of 105.

In turn, `CC(=O)Nc1sc2c(c1-c1nc3ccccc3s1)CNC2` returned a viability of 86.3.

Staying with this assay, now noted: library / dose series: MIPE library, 11-point 1:3 dilution; top concentration 92.2 µM; 48 h.
With `C[S+]([O-])c1ccc(-c2nc(-c3ccc(F)cc3)c(-c3ccncc3)[nH]2)cc1` (stereo not given), the viability is 71.3.
